{
  "source": "patent US10207011B2",
  "about": "“Methods, systems, and devices for an invertebrate model of traumatic brain injury” (WISCONSIN ALUMNI RESEARCH FOUNDATION, priority 2013, dated 2019)",
  "system": "w^1118 flies",
  "assay": "Mortality after standard TBI protocol in aspirin-fed flies",
  "format": "in vivo, Drosophila",
  "details": "0-3-day old w^1118 flies cultured four days on food with 0.4 ml aspirin (200 mg/ml in DMSO) before standard TBI protocol; FIG. 5",
  "text": "Based on the data described in Example 2, we designed a standard TBI protocol for administering controlled impacts to generate primary injuries. The standard TBI protocol consisted of four impacts with five min recovery intervals between impacts. Reproducibility and rapidity were the driving forces behind the choice of protocol parameters. […] As a proof of concept for identifying an agent that could reduce the severity of an impact-associated phenotype, e.g., lethality, we tested whether, the non-steroidal anti-inflammatory drug, aspirin, affects TBI outcomes. Flies were treated with aspirin by feeding and then subjected to the standard TBI protocol. 0.4 ml of aspirin (200 mg/ml in DMSO) or DMSO only was added to vials with food and allowed to absorb into the food for two hours. 0-3-day old w^1118 flies, with an approximately equal number of male and female flies, were cultured on the food for four days. Flies were then left untreated or subjected to the standard TBI protocol. […] Thus, aspirin pre-treatment raises the primary injury threshold.",
  "data": [
    {"molecule": "CC(=O)Oc1ccccc1C(=O)O", "note": "[aspirin]", "values": [
      {"measurement": "mortality 24 hours after a controlled impact, relative to DMSO-treated flies", "result": "lower mortality than the DMSO-treated flies"}
    ]}
  ]
}
